Results taken from ChEMBL document CHEMBL5154740, “Novel Aurora A and Protein Kinase C (α, β1, β2, and θ) Multitarget Inhibitors: Impact of Selenium Atoms on the Potency and Selectivity” (J Med Chem, 2022).

Legend:
[1] = target: T1, Aurora kinase A (Homo sapiens) (UniProt O14965); assay: Inhibition of AURA (unknown origin) at 50 nM by Z'LYTE screening method relative to control
T1 sequence (whole entry): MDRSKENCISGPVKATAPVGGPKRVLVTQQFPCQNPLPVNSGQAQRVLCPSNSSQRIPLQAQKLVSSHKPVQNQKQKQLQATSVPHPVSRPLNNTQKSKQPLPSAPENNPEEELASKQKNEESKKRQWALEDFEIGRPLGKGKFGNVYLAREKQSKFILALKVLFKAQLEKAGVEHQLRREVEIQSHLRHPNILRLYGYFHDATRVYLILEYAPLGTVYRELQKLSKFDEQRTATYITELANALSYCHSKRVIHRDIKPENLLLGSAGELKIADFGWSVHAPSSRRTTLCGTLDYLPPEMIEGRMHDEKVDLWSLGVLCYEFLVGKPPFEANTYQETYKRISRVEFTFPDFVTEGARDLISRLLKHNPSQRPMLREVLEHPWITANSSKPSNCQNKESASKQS

[2] = target: Aurora kinase B (Homo sapiens) (UniProt Q96GD4); assay: Inhibition of AURB (unknown origin) at 50 nM by Z'LYTE screening method relative to control
[3] = target: Cell division control protein 42 homolog (Homo sapiens) (UniProt P60953); assay: Inhibition of CDC42 delta (unknown origin) at 50 nM by Z'LYTE screening method relative to control
[4] = target: CDK1/Cyclin A (Homo sapiens) (UniProt P06493+P20248); assay: Inhibition of CDK1/CyclinA (unknown origin) at 50 nM by Z'LYTE screening method relative to control; type: protein-complex assay
Homo sapiens = species on record: Homo sapiens; assay: Inhibition of CDK1/Cyclin B (unknown origin) at 50 nM by Z'LYTE screening method relative to control
[5] = target: Cyclin-dependent kinase 5/CDK5 activator 1 (Homo sapiens) (UniProt Q00535+Q15078); assay: Inhibition of CDK5/p35 (unknown origin) at 50 nM by Z'LYTE screening method relative to control; type: protein-complex assay
[6] = target: DNA-dependent protein kinase catalytic subunit (Homo sapiens) (UniProt P78527); assay: Inhibition of DNA-PK (unknown origin) at 50 nM by Z'LYTE screening method relative to control
[7] = target: Receptor tyrosine-protein kinase erbB-2 (Homo sapiens) (UniProt P04626); assay: Inhibition of ERBB2 (unknown origin) at 50 nM by Z'LYTE screening method relative to control
[8] = target: Fibroblast growth factor receptor 1 (Homo sapiens) (UniProt P11362); assay: Inhibition of FGFR1 (unknown origin) at 50 nM by Z'LYTE screening method relative to control
[9] = target: Glycogen synthase kinase-3 beta (Homo sapiens) (UniProt P49841); assay: Inhibition of GSK3b (unknown origin) at 50 nM by Z'LYTE screening method relative to control
[10] = target: Tyrosine-protein kinase JAK2 (Homo sapiens) (UniProt O60674); assay: Inhibition of JAK2 (unknown origin) at 50 nM by Z'LYTE screening method relative to control
[11] = target: Dual specificity mitogen-activated protein kinase kinase 1 (Homo sapiens) (UniProt Q02750); assay: Inhibition of MAP2K1 (unknown origin) at 50 nM by Z'LYTE screening method relative to control
[12] = target: Serine/threonine-protein kinase PAK 1 (Homo sapiens) (UniProt Q13153); assay: Inhibition of PAK1 (unknown origin) at 50 nM by Z'LYTE screening method relative to control
[13] = target: Platelet-derived growth factor receptor alpha (Homo sapiens) (UniProt P16234); assay: Inhibition of PDGFRalpha (unknown origin) at 50 nM by Z'LYTE screening method relative to control
[14] = target: Protein kinase C eta type (Homo sapiens, UniProt P24723); assay: Inhibition of PKCeta (unknown origin) at 50 nM by Z'LYTE screening method relative to control
[15] = target: Protein kinase C theta type (Homo sapiens, UniProt Q04759); assay: Inhibition of PKCtheta (unknown origin) at 50 nM by Z'LYTE screening method relative to control
[16] = target: Ribosomal protein S6 kinase alpha-1 (Homo sapiens) (UniProt Q15418); assay: Inhibition of RPS6KA1 (unknown origin) at 50 nM by Z'LYTE screening method relative to control
[17] = target: Proto-oncogene tyrosine-protein kinase Src (Homo sapiens) (UniProt P12931); assay: Inhibition of SRC (unknown origin) at 50 nM by Z'LYTE screening method relative to control
[18] = target: Tyrosine-protein kinase SYK (Homo sapiens) (UniProt P43405); assay: Inhibition of SYK (unknown origin) at 50 nM by Z'LYTE screening method relative to control
[19] = target: Hepatocyte growth factor receptor (Homo sapiens) (UniProt P08581); assay: Inhibition of cMet (unknown origin) at 50 nM by Z'LYTE screening method relative to control
[20] = target: PI3-kinase p110-alpha/p85-alpha (Homo sapiens) (UniProt P27986+P42336); assay: Inhibition of p110alpha/p85alpha (unknown origin) at 50 nM by Z'LYTE screening method relative to control; type: protein-complex assay
[21] = target: Focal adhesion kinase 1 (Homo sapiens) (UniProt Q05397); assay: Inhibition of FAK (unknown origin) at 50 nM by Z'LYTE screening method relative to control
[22] = target: Ribosomal protein S6 kinase beta-1 (Homo sapiens) (UniProt P23443); assay: Inhibition of p70S6K (unknown origin) at 50 nM by Z'LYTE screening method relative to control
MDA-MB-231 = assay: Cytotoxicity against human MDA-MB-231/M cells assessed as reduction in cell viability incubated for 96 hrs by MTT assay; type: functional, cell-based; settings: MDA-MB-231, 96 h
4T1 = assay: Cytotoxicity against mouse 4T1 cells assessed as reduction in cell viability incubated for 96 hrs by MTT assay; type: functional, cell-based; settings: 4T1, 96 h

Chain of Cyclin-dependent kinase 5/CDK5 activator 1 (Homo sapiens) (Q00535 whole entry): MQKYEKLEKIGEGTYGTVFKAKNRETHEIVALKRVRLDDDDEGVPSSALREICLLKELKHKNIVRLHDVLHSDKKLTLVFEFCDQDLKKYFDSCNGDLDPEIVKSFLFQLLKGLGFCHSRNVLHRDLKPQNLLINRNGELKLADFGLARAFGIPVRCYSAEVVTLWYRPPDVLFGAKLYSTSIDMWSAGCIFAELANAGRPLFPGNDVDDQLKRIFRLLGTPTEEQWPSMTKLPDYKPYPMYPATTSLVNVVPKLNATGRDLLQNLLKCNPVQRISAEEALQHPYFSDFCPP
Chain of Cyclin-dependent kinase 5/CDK5 activator 1 (Homo sapiens) (Q15078 99-307 partner limits assumed): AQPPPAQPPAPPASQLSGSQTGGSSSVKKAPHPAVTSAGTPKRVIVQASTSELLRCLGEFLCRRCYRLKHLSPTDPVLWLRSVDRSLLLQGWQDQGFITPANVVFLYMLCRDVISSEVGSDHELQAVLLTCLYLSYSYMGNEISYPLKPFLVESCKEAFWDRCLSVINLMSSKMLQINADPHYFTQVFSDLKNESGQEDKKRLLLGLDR
Chain of Receptor tyrosine-protein kinase erbB-2 (Homo sapiens) (P04626 whole entry): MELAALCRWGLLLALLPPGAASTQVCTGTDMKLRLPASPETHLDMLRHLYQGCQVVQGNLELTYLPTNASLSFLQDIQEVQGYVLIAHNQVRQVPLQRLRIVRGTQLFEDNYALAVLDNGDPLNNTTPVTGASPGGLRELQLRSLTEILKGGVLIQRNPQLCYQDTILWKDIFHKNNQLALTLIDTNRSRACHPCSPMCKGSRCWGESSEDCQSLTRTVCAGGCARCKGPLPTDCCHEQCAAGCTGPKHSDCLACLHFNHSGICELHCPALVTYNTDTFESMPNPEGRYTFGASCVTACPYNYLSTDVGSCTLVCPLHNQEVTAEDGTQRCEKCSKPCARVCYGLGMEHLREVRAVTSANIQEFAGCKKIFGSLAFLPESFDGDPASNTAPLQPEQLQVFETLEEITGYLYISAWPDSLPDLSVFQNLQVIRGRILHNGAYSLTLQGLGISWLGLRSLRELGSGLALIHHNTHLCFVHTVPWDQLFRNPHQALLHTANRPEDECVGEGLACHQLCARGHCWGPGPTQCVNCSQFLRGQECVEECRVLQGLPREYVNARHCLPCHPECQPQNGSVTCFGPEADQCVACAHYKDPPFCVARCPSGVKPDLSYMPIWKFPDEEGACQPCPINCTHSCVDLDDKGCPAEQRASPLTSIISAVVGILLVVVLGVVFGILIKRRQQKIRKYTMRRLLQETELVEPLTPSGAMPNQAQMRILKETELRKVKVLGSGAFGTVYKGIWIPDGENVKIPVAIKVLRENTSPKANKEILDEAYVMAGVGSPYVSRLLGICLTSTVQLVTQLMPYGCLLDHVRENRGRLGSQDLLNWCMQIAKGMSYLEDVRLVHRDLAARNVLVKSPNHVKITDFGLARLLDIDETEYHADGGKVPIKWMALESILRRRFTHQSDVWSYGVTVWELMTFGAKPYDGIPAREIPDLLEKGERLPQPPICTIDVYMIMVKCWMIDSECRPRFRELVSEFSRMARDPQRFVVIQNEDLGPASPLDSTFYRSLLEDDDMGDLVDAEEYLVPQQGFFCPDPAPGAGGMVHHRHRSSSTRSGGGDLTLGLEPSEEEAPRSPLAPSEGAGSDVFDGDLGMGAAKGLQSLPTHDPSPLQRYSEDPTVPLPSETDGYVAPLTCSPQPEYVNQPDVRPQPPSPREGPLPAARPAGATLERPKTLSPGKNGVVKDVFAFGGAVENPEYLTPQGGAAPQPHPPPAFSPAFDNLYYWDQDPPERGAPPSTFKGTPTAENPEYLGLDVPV
Chain of Ribosomal protein S6 kinase alpha-1 (Homo sapiens) (Q15418 whole entry): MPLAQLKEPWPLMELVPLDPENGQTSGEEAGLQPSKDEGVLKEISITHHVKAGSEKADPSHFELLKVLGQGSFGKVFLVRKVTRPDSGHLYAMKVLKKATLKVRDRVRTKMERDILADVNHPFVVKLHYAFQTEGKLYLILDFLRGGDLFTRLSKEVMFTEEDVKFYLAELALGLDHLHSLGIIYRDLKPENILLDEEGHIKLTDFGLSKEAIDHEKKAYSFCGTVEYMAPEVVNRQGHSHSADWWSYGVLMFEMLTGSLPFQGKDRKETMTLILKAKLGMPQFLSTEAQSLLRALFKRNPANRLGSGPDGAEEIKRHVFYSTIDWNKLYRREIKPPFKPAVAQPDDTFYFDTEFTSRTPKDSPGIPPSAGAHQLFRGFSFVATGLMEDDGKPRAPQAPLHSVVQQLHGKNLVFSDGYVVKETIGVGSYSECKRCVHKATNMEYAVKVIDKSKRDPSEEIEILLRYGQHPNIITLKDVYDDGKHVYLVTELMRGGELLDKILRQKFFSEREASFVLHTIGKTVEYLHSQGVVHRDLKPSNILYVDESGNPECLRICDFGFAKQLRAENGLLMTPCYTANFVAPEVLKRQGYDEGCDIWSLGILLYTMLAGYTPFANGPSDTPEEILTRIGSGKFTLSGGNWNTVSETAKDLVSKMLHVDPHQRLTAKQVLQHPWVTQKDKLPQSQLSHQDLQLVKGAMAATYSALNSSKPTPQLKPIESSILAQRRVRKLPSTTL
Chain of Cell division control protein 42 homolog (Homo sapiens) (P60953 whole entry, looked up): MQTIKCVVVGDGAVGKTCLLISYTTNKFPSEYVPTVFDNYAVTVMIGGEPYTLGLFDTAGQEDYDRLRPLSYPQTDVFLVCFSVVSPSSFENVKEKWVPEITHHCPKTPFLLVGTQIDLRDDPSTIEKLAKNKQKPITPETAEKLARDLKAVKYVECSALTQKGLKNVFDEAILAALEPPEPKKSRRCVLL
Chain of Aurora kinase B (Homo sapiens) (Q96GD4 whole entry): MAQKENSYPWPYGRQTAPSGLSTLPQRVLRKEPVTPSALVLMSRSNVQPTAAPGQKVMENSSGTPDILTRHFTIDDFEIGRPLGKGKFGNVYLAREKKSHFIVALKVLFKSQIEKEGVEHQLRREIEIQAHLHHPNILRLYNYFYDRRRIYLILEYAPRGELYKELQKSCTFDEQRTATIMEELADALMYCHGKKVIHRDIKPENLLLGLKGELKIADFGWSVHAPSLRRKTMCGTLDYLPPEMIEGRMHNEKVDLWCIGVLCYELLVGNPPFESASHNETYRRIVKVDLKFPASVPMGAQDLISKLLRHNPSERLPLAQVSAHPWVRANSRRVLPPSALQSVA
Chain of CDK1/Cyclin A (Homo sapiens) (P06493 whole entry, looked up): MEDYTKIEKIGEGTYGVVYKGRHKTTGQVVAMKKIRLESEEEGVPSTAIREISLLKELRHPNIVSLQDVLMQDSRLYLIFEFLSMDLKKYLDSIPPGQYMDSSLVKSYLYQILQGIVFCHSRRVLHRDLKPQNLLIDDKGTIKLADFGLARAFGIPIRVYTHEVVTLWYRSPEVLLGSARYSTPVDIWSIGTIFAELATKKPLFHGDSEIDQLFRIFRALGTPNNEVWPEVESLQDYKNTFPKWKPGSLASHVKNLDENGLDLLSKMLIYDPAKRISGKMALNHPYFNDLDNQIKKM
Chain of CDK1/Cyclin A (Homo sapiens) (P20248 whole entry, looked up): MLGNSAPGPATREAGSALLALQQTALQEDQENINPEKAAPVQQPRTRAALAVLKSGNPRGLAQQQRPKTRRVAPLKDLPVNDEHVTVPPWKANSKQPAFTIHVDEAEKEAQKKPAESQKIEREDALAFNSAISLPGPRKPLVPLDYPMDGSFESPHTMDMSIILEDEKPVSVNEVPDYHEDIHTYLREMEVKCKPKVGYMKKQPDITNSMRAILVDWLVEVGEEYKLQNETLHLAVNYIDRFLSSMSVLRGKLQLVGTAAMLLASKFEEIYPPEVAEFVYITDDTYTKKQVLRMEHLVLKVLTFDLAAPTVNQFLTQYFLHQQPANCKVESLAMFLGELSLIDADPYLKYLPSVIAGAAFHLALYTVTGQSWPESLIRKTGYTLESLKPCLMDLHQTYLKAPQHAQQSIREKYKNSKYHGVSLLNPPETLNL
Chain of Tyrosine-protein kinase JAK2 (Homo sapiens) (O60674 whole entry): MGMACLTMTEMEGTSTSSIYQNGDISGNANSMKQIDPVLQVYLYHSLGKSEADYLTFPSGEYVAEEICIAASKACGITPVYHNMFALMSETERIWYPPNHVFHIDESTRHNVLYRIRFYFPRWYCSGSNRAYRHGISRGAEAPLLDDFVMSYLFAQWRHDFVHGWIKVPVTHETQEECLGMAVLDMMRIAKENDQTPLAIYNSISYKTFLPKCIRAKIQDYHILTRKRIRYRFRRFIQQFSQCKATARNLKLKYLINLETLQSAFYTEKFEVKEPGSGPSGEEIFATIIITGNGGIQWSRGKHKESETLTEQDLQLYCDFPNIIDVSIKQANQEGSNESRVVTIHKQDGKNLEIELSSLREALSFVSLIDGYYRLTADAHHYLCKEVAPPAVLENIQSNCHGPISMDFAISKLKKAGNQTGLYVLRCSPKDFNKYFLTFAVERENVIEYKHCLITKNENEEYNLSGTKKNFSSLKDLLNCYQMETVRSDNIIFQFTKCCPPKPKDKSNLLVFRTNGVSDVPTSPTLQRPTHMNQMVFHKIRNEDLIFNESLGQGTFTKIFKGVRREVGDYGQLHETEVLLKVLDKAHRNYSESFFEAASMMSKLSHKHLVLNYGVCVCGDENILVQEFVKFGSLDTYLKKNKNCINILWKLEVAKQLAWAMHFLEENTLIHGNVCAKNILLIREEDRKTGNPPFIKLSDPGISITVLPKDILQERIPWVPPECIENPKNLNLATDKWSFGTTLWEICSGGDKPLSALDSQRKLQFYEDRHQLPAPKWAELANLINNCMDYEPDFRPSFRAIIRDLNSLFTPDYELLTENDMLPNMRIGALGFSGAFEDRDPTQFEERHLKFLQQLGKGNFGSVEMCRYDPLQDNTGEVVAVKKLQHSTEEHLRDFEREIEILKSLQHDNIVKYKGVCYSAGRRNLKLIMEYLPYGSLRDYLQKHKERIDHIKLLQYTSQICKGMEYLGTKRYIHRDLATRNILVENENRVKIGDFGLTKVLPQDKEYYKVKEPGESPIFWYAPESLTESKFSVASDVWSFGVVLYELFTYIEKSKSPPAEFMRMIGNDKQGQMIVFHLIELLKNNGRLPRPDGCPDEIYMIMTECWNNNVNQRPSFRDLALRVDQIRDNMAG

inhibition [1]	inhibition [2]	inhibition [3]	inhibition [4]	inhibition (Homo sapiens)	inhibition [5]	inhibition [6]	inhibition [7]	inhibition [8]	inhibition [9]	inhibition [10]	inhibition [11]	inhibition [12]	inhibition [13]	inhibition [14]	inhibition [15]	inhibition [16]	inhibition [17]	inhibition [18]	inhibition [19]	Structure (SMILES)	other results
4%	4%	0%	2%	0%	2%	0%	0%	0%	7%	15%	4%	0%	11%	0%	0%	2%	5%	3%	0%	O=C1c2ccccc2CN1c1nc(NC2CCCCC2)c2nc[nH]c2n1	inhibition [20]: 0%; inhibition [21]: 0%; inhibition [22]: 1%; IC50 (MDA-MB-231): 36.6 µM; IC50 (4T1): 24.8 µM
84%	7%	0%	3%	0%	2%	0%	0%	0%	10%	17%	6%	0%	16%	0%	62%	2%	3%	5%	0%	O=c1c2ccccc2[se]n1-c1nc(NC2CCCCC2)c2nc[nH]c2n1	inhibition [20]: 0%; inhibition [21]: 0%; inhibition [22]: 1%; IC50 (MDA-MB-231): 10.2 µM; IC50 (4T1): 8.1 µM
